Laboratory results taken from US20210347780A1, “CDPK1 INHIBITORS, COMPOSITIONS, AND METHODS RELATED THERETO” (Vyera Pharmaceuticals, LLC, priority 2018, published 2021).
pIC50: −log10 of the molar value. Like-named read-outs stand apart in the source and are kept apart here.

Molecular target: T1, T. gondii CDPK1 (tgCDPK1) (Toxoplasma gondii, UniProt Q9BJF5)
T1 sequence (Q9BJF5 1-507): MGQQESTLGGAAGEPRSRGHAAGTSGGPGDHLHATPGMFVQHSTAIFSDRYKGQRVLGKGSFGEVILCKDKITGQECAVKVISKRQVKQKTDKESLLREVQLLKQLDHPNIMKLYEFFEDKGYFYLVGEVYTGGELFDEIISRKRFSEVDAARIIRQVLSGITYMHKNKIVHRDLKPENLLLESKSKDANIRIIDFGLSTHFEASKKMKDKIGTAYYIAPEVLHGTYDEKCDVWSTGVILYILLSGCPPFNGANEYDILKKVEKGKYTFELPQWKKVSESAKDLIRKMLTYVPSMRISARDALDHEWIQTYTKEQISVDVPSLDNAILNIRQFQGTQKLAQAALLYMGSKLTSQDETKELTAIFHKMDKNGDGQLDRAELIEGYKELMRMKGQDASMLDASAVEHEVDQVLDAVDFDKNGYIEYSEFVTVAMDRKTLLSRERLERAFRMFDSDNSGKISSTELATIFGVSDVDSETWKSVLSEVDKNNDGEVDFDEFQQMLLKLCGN
Experiment: biochemical
Details: at least three independent replicates
Protocol: Certain of the compounds prepared as described above were assayed to determine their IC50 for inhibition of T. gondii CDPK1 (tgCDPK1). At least three independent replicates of the assay were conducted for each compound tested.

[1] = inhibition of T. gondii CDPK1, read-out: tgCDPK1 IC50

Structure (SMILES) | pIC50 [1] | pIC50 (tgCDPK1 IC50, inhibition of T. gondii CDPK1)
Nc1ncnc2c1c(Oc1cc(C(F)(F)F)ccn1)nn2[C@H]1CCCC[C@H]1O (racemic) [191 cis (rac)] | 7.36 | –
Nc1ncnc2c1c(Oc1cc(C(F)(F)F)ccn1)nn2[C@@H]1CCCC[C@H]1O (racemic) [191 trans (rac)] | 7.60 | –
Nc1ncnc2c1c(Oc1cc(O)ccn1)nn2[C@@H]1CCCC[C@H]1O (single isomer, unassigned) [Compound 283] | 6.83 | –
Nc1ncnc2c1c(Oc1cc(O)ccn1)nn2[C@@H]1CCCC[C@@H]1O (single isomer, unassigned) [Compound 284] | 7.41 | –
COc1ccnc(Oc2nn([C@@H]3CCCC[C@H]3O)c3ncnc(N)c23)c1 (single isomer, unassigned) [Compound 285] | 5.85 | –
COc1ccnc(Oc2nn([C@H]3CCCC[C@H]3O)c3ncnc(N)c23)c1 (single isomer, unassigned) [Compound 286] | 6.84 | –
Nc1ncnc2c1c(Oc1cc(C(F)(F)F)ccn1)nn2[C@@H]1CCCC[C@H]1O [191 (R,R)] | 8.08 | –
Nc1ncnc2c1c(Oc1cc(C(F)(F)F)ccn1)nn2[C@H]1CCCC[C@@H]1O [191 (S,S)] | 6.90 | –
Nc1ncnc2c1c(Oc1cc(CO)ccn1)nn2C1CC1 [Compound 86, (2-((4-amino-1-cyclopropyl-1H-pyrazole[3,4-d]pyrimidin-3-yl)oxy)pyridin-4-yl)methanol] | 7.53 | –
COc1ccnc(Oc2nn(C3CCC3)c3ncnc(N)c23)c1 [Compound 112, 1-cyclobuty1-3-((4-methoxypyridin-2-yl)oxy)-1H-pyrazolo[3,4-d]pyrimidin-4-amine] | 7.84 | –
Nc1ncnc2c1c(Oc1cc(C(F)(F)F)ccn1)nn2[C@H]1C[C@H](O)C1 [Compound 113, (trans)-3-(4-amino-3-((4-(trifluoromethyl)pyridin-2-yl)oxy)-1H-pyrazolo[3,4-d]pyrimidin-1-yl)cyclobutan-1-ol] | 7.58 | –
Nc1ncnc2c1c(Oc1cc(Cl)ccn1)nn2[C@H]1C[C@H](O)C1 [Compound 116] | 7.81 | –
Nc1ncnc2c1c(Oc1cccc(Cl)c1)nn2C1CCC1 [Compound 121, 3-(3-chlorophenoxy)-1-cyclobutyl-1H-pyrazolo[3,4-d]pyrimidin-4-amine] | 8.13 | –
Nc1ncnc2c1c(Cc1cccc(Cl)c1)nn2[C@H]1C[C@H](O)C1 [Compound 124, (trans)-3-(4-amino-3-(3-chlorobenzyl)-1H-pyrazolo[3,4-d]pyrimidin-1-yl)cyclobutan-1-ol] | 8.05 | –
Nc1ncnc2c1c(Cc1cccc(C(F)(F)F)c1)nn2[C@H]1C[C@H](O)C1 [Compound 125] | 7.44 | –
Nc1ncnc2c1c(Cc1cccc(Br)c1)nn2[C@H]1C[C@H](O)C1 [Compound 127] | 7.74 | –
Nc1ncnc2c1c(Cc1cccc(F)c1)nn2[C@H]1C[C@H](O)C1 [Compound 128] | 7.55 | –
Nc1ncnc2c1c(Cc1cccc(Cl)c1)nn2[C@H]1C[C@@H](O)C1 [Compound 130, (cis)-3-(4-amino-3-(3-chlorobenzyl)-1H-pyrazolo[3,4-d]pyrimidin-1-yl)cyclobutan-1-ol] | 7.82 | –
Nc1ncnc2c1c(Cc1cccc(Br)c1)nn2[C@H]1C[C@@H](O)C1 [Compound 131] | 7.94 | –
Nc1ncnc2c1c(Cc1cccc(F)c1)nn2[C@H]1C[C@@H](O)C1 [Compound 132] | 7.55 | –
Nc1ncnc2c1c(Cc1cccc(Cl)c1)nn2[C@H]1C[C@@H](F)C1 [Compound 135, 3-(3-chlorobenzyl)-1-((cis)-3-fluorocyclobutyl)-1H-pyrazolo[3,4-d]pyrimidin-4-amine] | 8.15 | –
Nc1ncnc2c1c(Oc1cccc(C(F)(F)F)c1)nn2[C@H]1C[C@@H](O)C1 [Compound 151] | 7.50 | –
Nc1ncnc2c1c(Oc1cccc(Cl)c1)nn2[C@H]1C[C@@H](O)C1 [Compound 152] | 7.56 | –

Structure (SMILES) | pIC50 [1] | pIC50 (tgCDPK1 IC50, inhibition of T. gondii CDPK1)
Nc1ncnc2c1c(Oc1cccc(Cl)c1)nn2[C@H]1C[C@H](F)C1 [Compound 156] | 8.00 | –
Nc1ncnc2c1c(Cc1c[nH]c3ccc(F)cc13)nn2[C@H]1C[C@H](F)C1 [Compound 157] | 7.96 | –
Nc1ncnc2c1c(Oc1cc(C(F)(F)F)ccn1)nn2C1CC1 [Compound 159] | 7.89 | –
Nc1ncnc2c1c(Cc1cccc(F)c1)nn2[C@H]1C[C@H](F)C1 [Compound 161] | 7.85 | –
COc1ccnc(Oc2nn([C@H]3C[C@H](F)C3)c3ncnc(N)c23)c1 [Compound 162] | 7.76 | –
Nc1ncnc2c1c(Oc1cc(Cl)ccn1)nn2[C@H]1C[C@@H](O)C1 [Compound 163] | 7.74 | –
Nc1ncnc2c1c(Cc1cccc(F)c1)cn2[C@H]1C[C@H](O)C1 [Compound 164] | 7.55 | –
Nc1ncnc2c1c(Oc1cc(C3CC3)ccn1)nn2C1CC1 [Compound 165] | 7.54 | –
Nc1ncnc2c1c(Oc1cccc(C(F)(F)F)c1)nn2[C@H]1C[C@H](F)C1 [Compound 166] | 7.54 | –
COc1ccnc(Oc2nn([C@H]3C[C@@H](O)C3)c3ncnc(N)c23)c1 [Compound 168] | 7.43 | –
Nc1ncnc2c1c(Oc1cc(OC(F)(F)F)ccn1)nn2C1CC1 [Compound 169] | 7.42 | –
Nc1ncnc2c1c(Oc1cc(C(F)(F)F)ccn1)nn2[C@H]1C[C@@H](O)C1 [Compound 170] | 7.41 | –
Nc1ncnc2c1c(Oc1cccc(Cl)c1)nn2[C@H]1C[C@H](F)C1 [Compound 171] | – | 7.39
N#Cc1cccc(Cc2nn([C@H]3C[C@H](F)C3)c3ncnc(N)c23)c1 [Compound 172] | 7.34 | –
N#Cc1cccc(Oc2nn([C@H]3C[C@H](F)C3)c3ncnc(N)c23)c1 [Compound 173] | 7.30 | –
NC(=O)c1ccnc(Oc2nn([C@H]3C[C@H](F)C3)c3ncnc(N)c23)c1 [Compound 174] | 7.16 | –
COc1ccnc(Oc2nn([C@H]3C[C@H](F)C3)c3ncnc(N)c23)c1 [Compound 175] | 7.76 | –
N#Cc1cccc(Oc2nn([C@H]3C[C@H](O)C3)c3ncnc(N)c23)c1 [Compound 178] | 7.10 | –
Nc1ncnc2c1c(Oc1cccc(C(F)(F)F)c1)nn2[C@H]1C[C@H](O)C1 [Compound 179] | 7.32 | –
Nc1ncnc2c1c(Cc1c[nH]c3ccc(F)cc13)nn2[C@H]1C[C@H](O)C1 [Compound 184] | 7.99 | –
Nc1ncnc2c1c(Oc1cc(C(F)(F)F)ccn1)nn2C1CCC(F)(F)CC1 [Compound 185] | 7.42 | –
Nc1ncnc2c1c(Oc1cc(C(F)(F)F)ccn1)nn2CC1CC1 [Compound 186] | 7.65 | –
Nc1ncnc2c1c(Oc1cc(O)ccn1)nn2C1CCC(F)(F)CC1 [Compound 187, 2-((4-amino-1-(4,4-difluorocyclohexyl)-1H-pyrazolo[3,4-d]pyrimidin-3-yl)oxy)pyridin-4-ol] | 8.00 | –

Structure (SMILES) | pIC50 [1] | pIC50 (tgCDPK1 IC50, inhibition of T. gondii CDPK1)
Nc1ncnc2c1c(Oc1cc(Cl)ccn1)nn2C1CCNCC1 [Compound 188] | 7.53 | –
Nc1ncnc2c1c(Oc1cc(Cl)ccn1)nn2C1CCCNC1 (stereo not shown) [Compound 189] | ~7.62 | –
Nc1ncnc2c1c(Oc1cc(C(F)(F)F)ccn1)nn2C1CNCC(F)(F)C1 (stereo not shown) [Compound 190] | ~7.27 | –
Nc1ncnc2c1c(Oc1cc(C(F)(F)F)ccn1)nn2C1CCCC1 [Compound 192] | 7.72 | –
Nc1ncnc2c1c(Oc1cc(C(F)(F)F)ccn1)nn2C1CCOC1 (stereo not shown) [Compound 193] | 7.32 | –
Nc1ncnc2c1c(Oc1cc(C(F)(F)F)ccn1)nn2C1CCNCC1 [Compound 194] | 7.17 | –
Nc1ncnc2c1c(Oc1cc(C(F)(F)F)ccn1)nn2C1CCCNC1 (stereo not shown) [Compound 195] | 7.25 | –
CC(C)(C)OC(=O)N1CCC(Cn2nc(Oc3cc(C(F)(F)F)ccn3)c3c(N)ncnc32)C(F)(F)C1 (stereo not shown) [Compound 196] | 7.19 | –
Nc1ncnc2c1c(Oc1cc(C(F)(F)F)ccn1)nn2CC1CCNCC1(F)F (stereo not shown) [Compound 197] | 7.86 | –
Nc1ncnc2c1c(Oc1cc(C(F)(F)F)ccn1)nn2C1CCOCC1 [Compound 198] | 7.53 | –
CC(C)(C)OC(=O)N1CCC(n2nc(Oc3cc(C(F)(F)F)ccn3)c3c(N)ncnc32)C1 (stereo not shown) [Compound 199] | 7.41 | –
Nc1ncnc2c1c(Oc1cc(C(F)(F)F)ccn1)nn2C1CCCCC1 [Compound 200] | 7.83 | –
Nc1ncnc2c1c(Oc1cc(Cl)ccn1)nn2C1CCCC1 [Compound 201] | 7.78 | –
Nc1ncnc2c1c(Oc1cc(Cl)ccn1)nn2C1CCOC1 (stereo not shown) [Compound 202] | 7.25 | –
N#Cc1ccnc(Oc2nn(C3CCC(F)(F)CC3)c3ncnc(N)c23)c1 [Compound 203] | 7.07 | –
NC(=O)c1ccnc(Oc2nn(C3CCCC3)c3ncnc(N)c23)c1 [Compound 204] | 7.17 | –
NC(=O)c1ccnc(Oc2nn(C3CCCCC3)c3ncnc(N)c23)c1 [Compound 205] | 7.57 | –
NC(=O)c1ccnc(Oc2nn(C3CCC(F)(F)CC3)c3ncnc(N)c23)c1 [Compound 206] | 7.01 | –
N#Cc1ccnc(Oc2nn([C@H]3CC[C@@H](C(F)(F)F)CC3)c3ncnc(N)c23)c1 [Compound 207] | 7.63 | –
NC(=O)c1ccnc(Oc2nn([C@H]3CC[C@@H](C(F)(F)F)CC3)c3ncnc(N)c23)c1 [Compound 208] | 7.05 | –
N#Cc1ccnc(Oc2nn([C@H]3CC[C@H](C(F)(F)F)CC3)c3ncnc(N)c23)c1 [Compound 209] | 7.59 | –
